The results in this text go back to patent US6579556B2, “Ambient stable beverage” (Lipton, division of Conopco, Inc., priority 2000, dated 2003).

This assay concerns yeast Saccharomyces cerevisiae X2180-1B. As to the kind of experiment: Fungicidal activity / MIC at 50° C. versus 30° C., yeast survival in YEPD broth pH 3.4. The conditions noted are these: for MIC: Saccharomyces cerevisiae, read-out: MIC50; for Importance: rating as pasteurisation adjunct. In kind it is cell-based. As to the method: In the table the minimum inhibitory concentration (MIC) is given for each compound as well as the molecular weight (M.W.), the logPoct and a rating of its importance. […] The logPoct, that is the logarithm of the partition coefficient of the relevant compound in octanol and thus a measure of its […], was determined using […]™ software from the CHEMOFFICE ULRA ENHANCED 2000™ software package (version 5.5) that is commercially available from CambridgeSoft.
(§1) YEPD contained glucose, 20 g/l, peptone 20 g/l and yeast extract 10 g/l. Rows of 30 ml tubes containing 10 ml YEPD, pH 3.4, were equilibrated at the required temperature for 7 minutes in a water bath, before inoculation with 10^4 cells/ml of the yeast Saccharomyces cerevisiae X2180-1B. Tubes were held at temperature for 10 minutes before being cooled rapidly in cold water for 5 minutes. Tubes were then incubated for 48 hours at 25° C. to allow surviving yeasts to grow out, and form discrete colonies.
as §1, §1, §1

The mark [1] stands for this setting: minimum inhibitory concentration, 50° C.

Values after ≈ are worked out from the molar mass of the structure shown. Like-named read-outs stand apart in the source and are kept apart here.

For `CCCCCCCCCCCC(=O)OCC` [Ethyl laurate], the Importance result was “Mod”. In addition, the MIC under setting [1] was determined as 80 mM (≈ 18300 µg/mL).
As for `CCCCCCCCC(=O)OCC` [Ethyl nonanoate], the Importance result was “High (High effects compounds, most preferred, generally showed at least a 5 fold decrease in MIC, minimum inhibitory concentration at 50 °C compared with 30° C.)”. Further, the MIC under setting [1] is 10 mM (≈ 1860 µg/mL).
Taken in the same sequence, the figures for `CCCCCCCCCCC(=O)OCC` [Ethyl undecanoate] were “Mod” and 50 mM (≈ 10700 µg/mL).
With `CCCC(=O)OC/C=C(\C)CCC=C(C)C` [Geranyl butyrate], the Importance entry is “High (High effects compounds, most preferred, generally showed at least a 5 fold decrease in MIC, minimum inhibitory concentration at 50 °C compared with 30° C.)”. Besides, under setting [1], the MIC came to 40 mM (≈ 8970 µg/mL).
On to `CCC(=O)OC/C=C(\C)CCC=C(C)C` [Geranyl propionate], for which the Importance entry is “High (High effects compounds, most preferred, generally showed at least a 5 fold decrease in MIC, minimum inhibitory concentration at 50 °C compared with 30° C.)”. Further, the MIC under setting [1] turned out to be 12 mM (≈ 2520 µg/mL).
As to `CCCCCCCOC(=O)CCC` [Heptyl butyrate], the Importance entry was “High (High effects compounds, most preferred, generally showed at least a 5 fold decrease in MIC, minimum inhibitory concentration at 50 °C compared with 30° C.)”. Besides, the MIC under setting [1] came out at 2 mM (≈ 373 µg/mL).
With `CCCCCCCCCCCCCCCCO` [Hexadecanol], the Importance result is given as “Low”. The MIC under setting [1] was determined as 100 mM (≈ 24200 µg/mL).
`CCCCCCOC(=O)CCCCC` [Hexyl hexanoate]: the Importance entry is “High (High effects compounds, most preferred, generally showed at least a 5 fold decrease in MIC, minimum inhibitory concentration at 50 °C compared with 30° C.)”. Further, the MIC under setting [1] was found to be 30 mM (≈ 6010 µg/mL).
Regarding `CCCCCCCC(=O)OCCCCCC` [Hexyl octanoate], the Importance result was “Mod”. Moreover, the MIC under setting [1] stood at 10 mM (≈ 2280 µg/mL).
Turning to `CCCCCC(=O)OCCC(C)C` [Isoamyl hexanoate], the Importance entry was “High (High effects compounds, most preferred, generally showed at least a 5 fold decrease in MIC, minimum inhibitory concentration at 50 °C compared with 30° C.)”. Further, under setting [1], the MIC turned out to be 5 mM (≈ 931 µg/mL).
For the compound `CCCCCCCCCCCC(=O)OCCC(C)C` [Isoamyl laurate], the Importance result is “Low”.
As for `CC(C)CCOC(=O)c1ccccc1O` [Isoamyl salicylate], the Importance entry was “Mod”. The MIC under setting [1] was determined as 15 mM (≈ 3120 µg/mL).
With `CCCCCCCCCCCCOC(C)=O` [Lauryl acetate], the Importance result was “Mod”. The MIC under setting [1] amounted to 40 mM.
Take `C=CC(C)(CCC=C(C)C)OC(C)=O` (stereo not shown) [Linalyl acetate]: the MIC worked out at 10 mM and the Importance result is on record as “Mod”.
With `C=CC(C)(CCC=C(C)C)OC(=O)CC` (stereo not shown) [Linalyl propionate], the Importance result is listed as “Mod”. Under setting [1], the MIC worked out at 20 mM (≈ 4210 µg/mL).
`CCCCCCCCCC(=O)OC` [Methyl decanoate]: the Importance entry was “High (High effects compounds, most preferred, generally showed at least a 5 fold decrease in MIC, minimum inhibitory concentration at 50 °C compared with 30° C.)”. For the same compound, under setting [1], the MIC is 2 mM (≈ 373 µg/mL).
With `CCCCCCCCCCCC(=O)OC` [Methyl laurate], the Importance entry was “High (High effects compounds, most preferred, generally showed at least a 5 fold decrease in MIC, minimum inhibitory concentration at 50 °C compared with 30° C.)”. In addition, the MIC under setting [1] came out at 40 mM (≈ 8570 µg/mL).
Taken in the same sequence, the figures for `CCCCCCCCCCCCCC(=O)OC` [Methyl myristate] were “Low” and 60 mM (≈ 14500 µg/mL).
Take `CCCCCCCCC(=O)OC` [Methyl nonanoate]: the Importance entry is “High (High effects compounds, most preferred, generally showed at least a 5 fold decrease in MIC, minimum inhibitory concentration at 50 °C compared with 30° C.)”. For the same compound, the MIC under setting [1] was 2 mM (≈ 345 µg/mL).
Regarding `CCCCCCCCCCC(=O)OC` [Methyl undecanoate], the Importance entry is “High (High effects compounds, most preferred, generally showed at least a 5 fold decrease in MIC, minimum inhibitory concentration at 50 °C compared with 30° C.)”. The MIC under setting [1] came to 50 mM (≈ 10000 µg/mL).
For the compound `CC=CCCCCCCCC(=O)OC` [Methyl-9-undecenoate], the Importance result was “High (High effects compounds, most preferred, generally showed at least a 5 fold decrease in MIC, minimum inhibitory concentration at 50 °C compared with 30° C.)”. Moreover, the MIC under setting [1] came out at 40 mM (≈ 7930 µg/mL).
Taken in the same sequence, the figures for `CCCCCCCCCCCCCC=O` [Myristaldehyde] were “Mod” and 40 mM (≈ 8500 µg/mL).
Take `CCCCCCCCCCCCCC(=O)O` [Myristic acid]: the Importance entry is “High (High effects compounds, most preferred, generally showed at least a 5 fold decrease in MIC, minimum inhibitory concentration at 50 °C compared with 30° C.)”. In addition, the MIC under setting [1] was 50 mM (≈ 11400 µg/mL).
Consider `C=CC(C)(O)CCC=C(C)CCC=C(C)C` (stereo not shown) [Nerolidol], for which the Importance result is “High (High effects compounds, most preferred, generally showed at least a 5 fold decrease in MIC, minimum inhibitory concentration at 50 °C compared with 30° C.)”. Also, the MIC under setting [1] was found to be 1.5 mM (≈ 334 µg/mL).
Taken in the same sequence, the figures for `CCCC(=O)OC/C=C(/C)CCC=C(C)C` [Neryl butyrate] were “Mod” and 50 mM (≈ 11200 µg/mL).
For the compound `CC(C)=CCC/C(C)=C\COC(=O)C(C)C` [Neryl isobutyrate], the Importance result is “High (High effects compounds, most preferred, generally showed at least a 5 fold decrease in MIC, minimum inhibitory concentration at 50 °C compared with 30° C.)”. Under setting [1], the MIC is 30 mM (≈ 6730 µg/mL).
With `CCCCCCCCCOC(C)=O` [Nonyl acetate], the Importance entry is “High (High effects compounds, most preferred, generally showed at least a 5 fold decrease in MIC, minimum inhibitory concentration at 50 °C compared with 30° C.)”. Also, the MIC under setting [1] amounted to 5 mM.
For `CCCCCCCCOC(=O)CCC` [Octyl butyrate], the Importance entry is “High (High effects compounds, most preferred, generally showed at least a 5 fold decrease in MIC, minimum inhibitory concentration at 50 °C compared with 30° C.)”. In addition, the MIC under setting [1] was 40 mM (≈ 8010 µg/mL).
On to `CCCCCCCCCCCCCCC(=O)O` [Pantadecanoic acid], for which the Importance result is “Low”. In addition, the MIC50 under setting [1] amounted to 80 mM (≈ 19400 µg/mL).
Consider `CCCCCCCCCCCCCCCO` [Pentadecanol], for which the Importance result is listed as “Low”. Under setting [1], the MIC came out at 75 mM (≈ 17100 µg/mL).
On to `CCCCCC(=O)OCCc1ccccc1` [Phenethyl hexanoate], for which the Importance result was “High (High effects compounds, most preferred, generally showed at least a 5 fold decrease in MIC, minimum inhibitory concentration at 50 °C compared with 30° C.)”. Moreover, the MIC under setting [1] was determined as 10 mM (≈ 2200 µg/mL).
For `CCCCCCCC(=O)OCCc1ccccc1` [Phenethyl octanoate], in that order: “Mod” and 40 mM (≈ 9930 µg/mL).
With `CCCCCCCCCCCCCCO` [Tetradecanol], the Importance entry is “Mod”. Also, the MIC under setting [1] is 50 mM (≈ 10700 µg/mL).
Consider `CCCCCCCCCCCCC=O` [Tridecanal], for which the Importance result was “High (High effects compounds, most preferred, generally showed at least a 5 fold decrease in MIC, minimum inhibitory concentration at 50 °C compared with 30° C.)”. For the same compound, the MIC under setting [1] turned out to be 5 mM (≈ 992 µg/mL).
With `CCCCCCCCCCCCC(=O)O` [Tridecanoic acid], the Importance result was “High (High effects compounds, most preferred, generally showed at least a 5 fold decrease in MIC, minimum inhibitory concentration at 50 °C compared with 30° C.)”. Under setting [1], the MIC amounted to 0.2 mM (≈ 42.9 µg/mL).
Regarding `CCCCCCCCCCCCCO` [Tridecanol], the Importance entry is “High (High effects compounds, most preferred, generally showed at least a 5 fold decrease in MIC, minimum inhibitory concentration at 50 °C compared with 30° C.)”. Also, under setting [1], the MIC was found to be 0.05 mM (≈ 10 µg/mL).
In the case of `O=C1CCCCCCCCCCCCCCO1` [w-Pentadecalactone], the Importance entry is on record as “Low”. Under setting [1], this compound came in with an MIC50 of 60 mM (≈ 14400 µg/mL).
For `C=C1CC/C=C(\C)CC[C@@H]2[C@@H]1CC2(C)C` [β-Caryophylene], in that order: “Low” and 70 mM (≈ 14300 µg/mL).
For the compound methyl decenoate, the “fungicidal activity at 30° C.” value (30° C.) is listed as “no fungicidal activity”. In addition, the “fungicidal activity when heated to 50° C.” value (50° C.) is given as “significant fungicidal activity”.
For the compound w-6-Hexadecalactone, the Importance result is “Low”. The compound further came in with an MIC50 under setting [1] of 50 mM.

For orientation: MIC50 means the lowest concentration that inhibits either 50% of growth or 50% of the strains tested, depending on the study.
